Several values for one entry are separate records, joined by “and”; a condition that tells them apart may be missing. Equal entries are not always repeated. Where two headings read alike, the source gives them in different places.
Columns and labels:
MCF7 cell line = experiment: In vitro cytotoxic activity, MTT method, MCF7; assay type: cell-based, human
Summary of the method: (§1)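 Monolayers formed over 24 h at 37 °C from 10^5 cells/mL were treated with graded compound concentrations, doxorubicin serving as reference. Viability came from MTT reduction over 1–5 h (5% CO2), absorbance at 560 nm with 620 nm background subtraction.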

A549 cell line = experiment: In vitro cytotoxic activity, MTT method, A549; details: Homo sapiens, read-out: IC50 ± SD
Summary of the method: as §1

[1] = Cytotoxicity on normal cell line WI-38; assay type: cell-based, human; details: human, % viability
WI-38 cell line = experiment: Cytotoxicity on normal cell line WI-38; assay type: cell-based, human; details: for IC50: read-out: Toxicity on WI38 IC50 ± SD; for % viability: human
IKB kinase B = target: T1, IKB kinase B (Homo sapiens, UniProt O14920); experiment: IKB kinase inhibition; assay type: biochemical; details: IκB
T1 sequence (O14920 1-756): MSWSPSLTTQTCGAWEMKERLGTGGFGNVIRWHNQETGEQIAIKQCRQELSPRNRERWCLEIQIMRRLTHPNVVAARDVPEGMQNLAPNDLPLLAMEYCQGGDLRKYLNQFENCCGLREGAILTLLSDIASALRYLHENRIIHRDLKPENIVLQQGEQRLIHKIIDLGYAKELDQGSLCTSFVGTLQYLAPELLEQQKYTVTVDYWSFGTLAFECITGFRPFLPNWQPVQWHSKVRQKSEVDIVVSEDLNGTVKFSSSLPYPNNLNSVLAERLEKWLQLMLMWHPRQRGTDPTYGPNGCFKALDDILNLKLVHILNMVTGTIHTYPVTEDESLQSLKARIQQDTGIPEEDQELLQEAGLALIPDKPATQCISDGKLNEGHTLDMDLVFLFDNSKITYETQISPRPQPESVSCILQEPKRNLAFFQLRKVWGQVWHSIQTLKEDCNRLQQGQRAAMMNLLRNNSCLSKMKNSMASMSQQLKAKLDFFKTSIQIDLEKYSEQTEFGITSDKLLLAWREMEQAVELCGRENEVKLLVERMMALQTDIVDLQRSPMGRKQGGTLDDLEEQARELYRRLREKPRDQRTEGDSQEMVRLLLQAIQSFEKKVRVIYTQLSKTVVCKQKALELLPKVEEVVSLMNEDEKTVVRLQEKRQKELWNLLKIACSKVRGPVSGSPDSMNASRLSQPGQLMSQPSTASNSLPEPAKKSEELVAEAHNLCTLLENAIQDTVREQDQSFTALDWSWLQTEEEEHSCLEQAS

Eef2 kinase = Eef2 kinase (Homo sapiens, UniProt O00418); experiment: Eef2 kinase inhibition; assay type: biochemical

**Q.** Which IC50 (MCF7 cell line; Homo sapiens, MCF7, MCF7 cell line, MTT) does the source give for `COc1cccc2c1C(=O)c1c(O)c3c(c(O)c1C2=O)C[C@@](O)(C(=O)CO)C[C@@H]3O[C@H]1C[C@H](N)[C@H](O)[C@H](C)O1` [Doxorubicin, reference compound] here?
**A.** Its IC50 is 0.053 ± 0.002 µM.

**Q.** And the Toxicity % (MCF7 cell line; MCF7, 0.0487 µMol)?
**A.** The Toxicity % was 48.12%.

**Q.** And the Viability % (MCF7 cell line; MCF7, 0.0487 µMol)?
**A.** Its Viability % is 51.88%.

**Q.** What about the Toxicity % (MCF7 cell line; MCF7, 0.0975 µMol) of the same compound?
**A.** Its Toxicity % is 52.667%.

**Q.** And the Viability % (MCF7 cell line; MCF7, 0.0975 µMol)?
**A.** Its Viability % is 47.34%.

**Q.** What about the Toxicity % (MCF7 cell line; MCF7, 0.195 µMol) of the same compound?
**A.** Its Toxicity % is 56.34%.

**Q.** What about the Viability % (MCF7 cell line; MCF7, 0.195 µMol) of the same compound?
**A.** The Viability % was 43.66%.

**Q.** What about the Toxicity % (MCF7 cell line; MCF7, 0.391 µMol) of the same compound?
**A.** The Toxicity % was 62.87%.

**Q.** And the Viability % (MCF7 cell line; MCF7, 0.391 µMol)?
**A.** Its Viability % is 37.13%.

**Q.** What about the Toxicity % (MCF7 cell line; MCF7, 0.781 µMol) of the same compound?
**A.** The Toxicity % was 73.56%.

**Q.** And the Viability % (MCF7 cell line; MCF7, 0.781 µMol)?
**A.** Its Viability % is 26.44%.

**Q.** And the Toxicity % (MCF7 cell line; MCF7, 1.562 µMol)?
**A.** The Toxicity % was 80.23%.

**Q.** What about the Viability % (MCF7 cell line; MCF7, 1.562 µMol) of the same compound?
**A.** Its Viability % is 19.77%.

**Q.** What about the Toxicity % (MCF7 cell line; MCF7, 3.125 µMol) of the same compound?
**A.** The Toxicity % was 90.87%.

**Q.** And the Viability % (MCF7 cell line; MCF7, 3.125 µMol)?
**A.** The Viability % was 9.13%.

**Q.** And the Toxicity % (MCF7 cell line; MCF7, 6.25 µMol)?
**A.** Its Toxicity % is 93.45%.

**Q.** And the Viability % (MCF7 cell line; MCF7, 6.25 µMol)?
**A.** Its Viability % is 6.55%.

**Q.** What about the Toxicity % (MCF7 cell line; MCF7, 12.5 µMol) of the same compound?
**A.** Its Toxicity % is 97.46%.

**Q.** And the Viability % (MCF7 cell line; MCF7, 12.5 µMol)?
**A.** The Viability % was 2.542%.

**Q.** And the Toxicity % (MCF7 cell line; MCF7, 25 µMol)?
**A.** Its Toxicity % is 98.45%.

**Q.** And the Viability % (MCF7 cell line; MCF7, 25 µMol)?
**A.** The Viability % was 1.556%.

**Q.** And the IC50 (A549 cell line)?
**A.** The IC50 was 0.218 ± 0.005 µM.

**Q.** What about the viability at 1.55 µM [1] of the same compound?
**A.** The viability at 1.55 µM was 84.1%.

**Q.** What about the viability at 6.25 µM [1] of the same compound?
**A.** Its viability at 6.25 µM is 64.5%.

**Q.** And the viability at 12.5 µM [1]?
**A.** The viability at 12.5 µM was 52.4%.

**Q.** And the viability at 25 µM [1]?
**A.** Its viability at 25 µM is 31.1%.

**Q.** What about the IC50 (WI-38 cell line; Homo sapiens, WI-38, normal human fetal lung fibroblast WI-38) of the same compound?
**A.** Its IC50 is 11.4 µM.

**Q.** What about the “Selectivity index (SI)” value (WI-38 cell line; IC50 in WI-38 / IC50 in A549) of the same compound?
**A.** Its value is 52 and 52.4.

**Q.** And the “% viability” value (WI-38 cell line; 1.55 µM)?
**A.** The value was 84.08%.

**Q.** What about the “% viability” value (WI-38 cell line; 3.25 µM) of the same compound?
**A.** Its value is 72.52%.

**Q.** What about the “% viability” value (WI-38 cell line; 12.5 µM) of the same compound?
**A.** Its value is 52.38%.

**Q.** What about the “% viability” value (WI-38 cell line; 25 µM) of the same compound?
**A.** Its value is 31.09%.

**Q.** And the IC50 (WI-38 cell line; normal human fetal lung fibroblast WI-38)?
**A.** Its IC50 is 11.4 ± 0.37 µM.

**Q.** Which “%inh” value (IKB kinase B; conc 0.01 (log -2)) does the source give for `NC(=O)Nc1sc(-c2ccc(F)cc2)cc1C(N)=O` [TPCA-1, reference compound] here?
**A.** Its value is 32.5%.

**Q.** And the “%inh” value (IKB kinase B; conc 0.1 (log -1))?
**A.** The value was 53.6%.

**Q.** And the “%inh” value (IKB kinase B; conc 1 (log 0))?
**A.** Its value is 71.3%.

**Q.** And the “%inh” value (IKB kinase B; conc 10 (log 1))?
**A.** The value was 88.6%.

**Q.** What about the “%inh” value (IKB kinase B; conc 100 (log 2)) of the same compound?
**A.** Its value is 95.2%.

**Q.** What does the source list for `CCCCCCCCCCCCCCCCn1cc[n+](Cc2ccccc2)c1C.[I-]` [NH125, reference compound]?
**A.** %inh (Eef2 kinase; Eef2, conc 0.01 (log -2)): 20.1%; %inh (Eef2 kinase; Eef2, conc 0.1 (log -1)): 33.9%; %inh (Eef2 kinase; Eef2, conc 1 (log 0)): 62.7%; %inh (Eef2 kinase; Eef2, conc 10 (log 1)): 84.3%; %inh (Eef2 kinase; Eef2, conc 100 (log 2)): 92.6%
